Assay results as given in patent US20230190774A1, “METHOD OF USING SUBSTRATES OF AKR1Bl/AKR1B10 AS ANTI-CANCER DRUGS” (Beijing Normal University Hong Kong Baptist University …, priority 2015, published 2023).
Entries after “also recorded” stand apart in the source; their conditions may differ. Read-outs that look alike come from different tables or passages of the source. Where a SMILES comes first, the peptide text is derived from it. The star is where a group is joined. Cbz = O=C(OCc1ccccc1)*

Columns and labels:
AKR1B10 [1] = target: T1, AKR1B10 (Homo sapiens, UniProt O60218); conditions: ND = no detectable activity or less than 32 nmol/min/mg; cited from earlier work
AKR1B1 [2] = target: AKR1B1 (Homo sapiens, UniProt P15121); conditions: ND = no detectable activity or less than 32 nmol/min/mg; cited from earlier work
SW480 cells = experiment: Cytotoxicity assay (cell survival rate, MTT); assay type: cell-based; conditions: for Sensitivity to 2DG after pretreatment: pretreated 24 hours before addition of 2DG
Method: (§1) HepG2 cells, SKOV3 cells, HCT116 cells and CaCo2 cells were cultured in DMEM medium, SW480 cells in 1640 medium, and HT29 cells in McCoy’s 5A medium. […] In cytotoxicity assays, cells were seeded at 1 × 10^5 cells/well in 96 well plates with full medium. In GSH assay and Western blot analysis, cells were seeded at 3× 10^6 cells/well in 6 well plates. The AKR1Bs substrates’ cytotoxicity was assessed by cell survival rate using MTT assay. After the cells were treated with the substrates for the length of time indicated, MTT was added to a final concentration of 0.5 mg/ml in each well of a 96-well plate, and the plates were incubated at 37° C. for 4 hour. Then DMSO was added to dissolve the formazan product, the amount of which is proportional to the number of live cells. The absorbance of dissolved dye was measured at 540 nm using an automatic microplate reader.

HT29 cells = experiment: Cytotoxicity assay (cell survival rate, MTT); assay type: cell-based; conditions: for Sensitivity to 2DG after pretreatment: pretreated 24 hours before addition of 2DG
Method: as §1

AKR1B10 [3] = experiment: Western blot of AKR1B10 protein level in treated cells; assay type: cell-based, human
Method: (§2) HepG2 cells, SKOV3 cells, HCT116 cells and CaCo2 cells were cultured in DMEM medium, SW480 cells in 1640 medium, and HT29 cells in McCoy’s 5A medium. All cell culture media were supplemented with 10% FBS, 1% PSN, and cells were cultured in a humidified incubator containing 5% CO2 at 37° C. In cytotoxicity assays, cells were seeded at 1 × 10^5 cells/well in 96 well plates with full medium. In GSH assay and Western blot analysis, cells were seeded at 3× 10^6 cells/well in 6 well plates.
(§3) Cells were lysed on ice with the protein extraction reagent. Total protein (30 µg) per sample were loaded onto 10% SDS-polyacrylamide gels and separated at 75V, and then electrotransferred to polyvinylidene difluoride (PVDF) membranes overnight at 15 V. Membranes were then soaked in 5% nonfat milk in TBS at room temperature for 1 hour and then incubated with rabbit anti-AKR1B1 antibodies (1:3000) or rabbit anti-AKR1B10 antibodies (1:3000) at room temperature for 2 hours. After being washed, the membranes were incubated in HRP-conjugated goat anti-rabbit or goat anti-mouse IgG secondary antibodies (1:5000) for 1 hour at room temperature, followed by washing and incubation with ECL reagents for 1 min. β-actin monoclonal mouse antibodies (1:5000) was used as reference to assess the relative amounts of proteins loaded per lane.

AKR1B1 [4] = experiment: Western blot of AKR1B1 protein level in treated cells; assay type: cell-based, human
Method: as §2, §3

[5] = for Death Rate / Death/Total: i.v., n=8
Method: ICR mice (18-22 g) were acquired from the Laboratory Animal Services Centre, The Chinese University of Hong Kong. These animals were housed in an animal room with 12 h of day and dark cycles, and the temperature maintained at around 25° C. There were 4 male and 4 female in each treatment and control group. They were treated with either diacetyl or glyceraldehyde. Diacetyl and glyceraldehyde were dissolved with saline and administered to the mice by intravenous injection with the amount indicated. […] Mortality was recorded daily for the calculation of […] (LD50). All surviving animals were euthanized with diethyl-ether at the end of the experiment.

AKR1B10 [6] = target: T1, AKR1B10; experiment: Enzyme activity assay (NADPH oxidation), purified AKR1B10; assay type: biochemical; conditions: 20 mM substrate, pH 7.0, 30° C.
Method: Assay of AKR1B1 and AKR1B10 enzymes activities were conducted in 1 ml of the reaction mixture containing 135 mM sodium phosphate buffer (pH 6.2 for AKR1B1 or pH 7.0 for AKR1B10), 0.2 mM NADPH, 0.3 M ammonium sulfate, 2 µg purified protein and 20 mM of their substrate as indicated. The reaction mix was incubated at 30° C. for 30 minutes (min). Protein-free blank controls were included. The decrease of NADPH was monitored by spectrophotometer at 340 nm. Enzyme activity was calculated as the amount of NADPH oxidized/min/mg of protein (Shen Y et al., Chem Biol Interact. 2011, 191(1-3): 192-198).

HepG2 tumor xenograft = conditions: 80 mg/kg, tail vein, daily for 21 days
Method: Six-week-old male BALB/C nude mice were purchased from the Laboratory Animal Unit of the University of Hong Kong. Mice were allowed to acclimate to laboratory conditions for 1 week before cancer cells injection. […] Treatment was initiated when the tumor grew to about 200±100 mm3. […] Mice were randomized and allocated to different groups. They received daily tail vein injection for 3 weeks of one of the following: glyceraldehyde (500 mg/kg body weight); diacetyl (80 mg/kg body weight); or normal saline. Mice were weighted and the sizes of the tumors were measured with calipers every 3 days. Tumor volumes were calculated with the formula: length×width2/2. Animals were humanely killed at the end of the experiment and their tumors were weighed.

HepG2 cells = experiment: Cytotoxicity assay (cell survival rate, MTT); assay type: cell-based; conditions: substrate alone, 2DG for 72 hours
Method: as §2
(§4) The AKR1Bs substrates’ cytotoxicity was assessed by cell survival rate using MTT assay. After the cells were treated with the substrates for the length of time indicated, MTT was added to a final concentration of 0.5 mg/ml in each well of a 96-well plate, and the plates were incubated at 37° C. for 4 hour. Then DMSO was added to dissolve the formazan product, the amount of which is proportional to the number of live cells. The absorbance of dissolved dye was measured at 540 nm using an automatic microplate reader.

SKOV3 cells = experiment: Cytotoxicity assay (cell survival rate, MTT); assay type: cell-based; conditions: substrate alone, 2DG for 72 hours
Method: as §2, §4

HCT116 cells = experiment: Cytotoxicity assay (cell survival rate, MTT); assay type: cell-based; conditions: substrate alone, 2DG for 72 hours
Method: as §2, §4

CaCo2 cells = experiment: Cytotoxicity assay (cell survival rate, MTT); assay type: cell-based; conditions: substrate alone, 2DG for 72 hours
Method: as §2, §4

[7] = substrate alone, 2DG for 72 hours

T1 sequence (O60218 whole entry): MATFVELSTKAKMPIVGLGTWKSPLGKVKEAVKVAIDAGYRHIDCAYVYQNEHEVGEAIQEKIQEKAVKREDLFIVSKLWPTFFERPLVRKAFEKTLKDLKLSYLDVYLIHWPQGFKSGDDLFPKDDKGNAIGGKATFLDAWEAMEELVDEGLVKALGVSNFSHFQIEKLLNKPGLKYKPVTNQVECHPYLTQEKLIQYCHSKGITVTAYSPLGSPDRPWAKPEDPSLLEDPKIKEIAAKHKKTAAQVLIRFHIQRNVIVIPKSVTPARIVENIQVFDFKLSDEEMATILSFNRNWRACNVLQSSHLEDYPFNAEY

For `O=Cc1ccccn1` [Pyridine-2-aldehyde], the “AKR1B10 activity, amount of NADPH (nmol) oxidized per min per mg of protein” value (“AKR1B10 activity, amount … per mg of protein” below) (AKR1B10 [1]) is given as 4645 nmol/min/mg and the “AKR1B1 activity, amount of NADPH (nmol) oxidized per min per mg of protein” value (from here on “AKR1B1 activity, amount … per mg of protein”) (AKR1B1 [2]) is given as 632 nmol/min/mg.
For `O=C[C@H](O)[C@@H](O)[C@@H](O)[C@H](O)CO` [D-Galactose], the “AKR1B10 activity, amount … per mg of protein” value (AKR1B10 [1]) is given as 65 nmol/min/mg and the “AKR1B1 activity, amount … per mg of protein” value (AKR1B1 [2]) is given as 193 nmol/min/mg.
With `CC(C)C[C@H](NC(=O)[C@H](Cc1ccccc1)NC(=O)c1cnccn1)B(O)O` [Bortezomib] the “Sensitivity to 2DG after pretreatment” value (SW480 cells) was “significantly more cells were killed by 2DG”, the “Sensitivity to 2DG after pretreatment” value (HT29 cells) was “significantly more cells were killed by 2DG” and the “AKR1B10 protein level (western blot)” value (AKR1B10 [3]; HT29 cells) was “increased”. The “AKR1B10 protein level (western blot)” value (AKR1B10 [3]; SW480 cells) was “induced only AKR1B1”, the “AKR1B1 protein level (western blot)” value (AKR1B1 [4]; HT29 cells) was “increased” and the “AKR1B1 protein level (western blot)” value (AKR1B1 [4]; SW480 cells) was “induced”.
For `CC(C)C[C@@H](C=O)NC(=O)[C@H](CC(C)C)NC(=O)[C@H](CC(C)C)NC(=O)OCc1ccccc1` [MG-132] (Cbz-Leu-Leu-Leu-aldehyde), the “Sensitivity to 2DG after pretreatment” value (SW480 cells) was “significantly more cells were killed by 2DG”, the “Sensitivity to 2DG after pretreatment” value (HT29 cells) was “significantly more cells were killed by 2DG” and the “AKR1B10 protein level (western blot)” value (AKR1B10 [3]; HT29 cells) was “able to increase”. The “AKR1B10 protein level (western blot)” value (AKR1B10 [3]; SW480 cells) was “able to increase”, the “AKR1B1 protein level (western blot)” value (AKR1B1 [4]; HT29 cells) was “able to increase” and the “AKR1B1 protein level (western blot)” value (AKR1B1 [4]; SW480 cells) was “able to increase”.
For `O=Cc1ccc([N+](=O)[O-])cc1` [p-Nitrobenzaldehyde], the “AKR1B10 activity, amount … per mg of protein” value (AKR1B10 [1]) is listed as 4480 nmol/min/mg and the “AKR1B1 activity, amount … per mg of protein” value (AKR1B1 [2]) is listed as 760 nmol/min/mg.
In the case of `CC(=O)C(C)=O` [Diacetyl, diacetyl], the LD50 ([5]; ICR mice, intravenous injection daily for 14 days) is reported as 410 mg/kg BW, the “Death Rate” value ([5]; dose 300 mg/kg BW) is reported as 0% and the Death/Total ([5]; dose 300 mg/kg BW) is reported as 0/8. For the same compound, the “Death Rate” value ([5]; dose 360 mg/kg BW) was 37.5%, the Death/Total ([5]; dose 360 mg/kg BW) was “⅜” and the “Death Rate” value ([5]; dose 432 mg/kg BW) was 62.5%. For the same compound, the Death/Total ([5]; dose 432 mg/kg BW) was “⅝”, the “Death Rate” value ([5]; dose 518 mg/kg BW) was 87.5% and the Death/Total ([5]; dose 518 mg/kg BW) was “⅞”. The “Death Rate” value ([5]; dose 622 mg/kg BW) was 100.0%, the Death/Total ([5]; dose 622 mg/kg BW) was 8/8 and the “Cytotoxicity of AKR1Bs substrate (cell survival rate)” value (from here on “Cytotoxicity of AKR1Bs substrate”) (SW480 cells; [7]) was “more resistant”. The “Cytotoxicity of AKR1Bs substrate” value (HT29 cells; [7]) was “more resistant”, the “AKR1B10 activity, amount … per mg of protein” value (AKR1B10 [1]) was 2329 nmol/min/mg and the “AKR1B1 activity, amount … per mg of protein” value (AKR1B1 [2]) was 725 nmol/min/mg. For the same compound, the “Efficiency as substrate of AKR1B10 (rate of NADPH depletion)” value (AKR1B10 [6]) was “better substrate for AKR1B10 than for AKR1B1; also recorded: best substrate”, the Tumor volume (HepG2 tumor xenograft) was “significantly reduced” and the Tumor weight (HepG2 tumor xenograft) was “significantly reduced”. The “Cytotoxicity of AKR1Bs substrate” value (HepG2 cells) was “dose-dependently and preferentially kill”, the “Cytotoxicity of AKR1Bs substrate” value (HepG2 cells; listed as diacetyl) was “dose dependently and preferentially kill” and the “Cytotoxicity of AKR1Bs substrate” value (SKOV3 cells) was “dose-dependently and preferentially kill”. For the same compound, the “Cytotoxicity of AKR1Bs substrate” value (SKOV3 cells; listed as diacetyl) was “dose dependently and preferentially kill”, the “Cytotoxicity of AKR1Bs substrate” value (HCT116 cells) was “dose dependently and preferentially kill” and the “Cytotoxicity of AKR1Bs substrate” value (CaCo2 cells) was “dose dependently and preferentially kill”.
